This passage reports melting point and Ki results from patent publication US20070099912A1, “Pyrrolo[2,3-F] and [3,2-F]Isoquinolinone derivatives as 5-hydroxytryptamine-6 ligands” (Wyeth, priority 2005, published 2007).

Counter-ions that a name gives are not always drawn.

Data set [1] deals with human cloned 5-HT6 receptors (Homo sapiens, UniProt P50406).
Sequence of human cloned 5-HT6 receptors (P50406 whole entry): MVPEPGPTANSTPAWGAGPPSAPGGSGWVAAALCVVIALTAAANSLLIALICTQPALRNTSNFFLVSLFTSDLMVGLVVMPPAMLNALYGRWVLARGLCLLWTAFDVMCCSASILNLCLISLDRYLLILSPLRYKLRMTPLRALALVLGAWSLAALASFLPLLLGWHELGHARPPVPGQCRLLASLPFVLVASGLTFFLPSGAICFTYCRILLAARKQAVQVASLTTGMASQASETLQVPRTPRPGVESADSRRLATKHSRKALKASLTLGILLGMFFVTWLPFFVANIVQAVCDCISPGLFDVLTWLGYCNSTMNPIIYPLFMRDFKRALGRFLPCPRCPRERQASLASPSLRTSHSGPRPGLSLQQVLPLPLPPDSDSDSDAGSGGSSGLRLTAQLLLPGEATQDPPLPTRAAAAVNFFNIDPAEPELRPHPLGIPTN

Turning to `CN(C)CCn1ccc2ccc3c(=O)n(Cc4ccccc4)ccc3c21` (as salt: hydrochloride) [Example 6, 7-Benzyl-1-[2-(dimethylamino)ethyl]-1.7-dihydro-6H-pyrrolo[2,3-f]isoquinolin-6-one hydrochloride], the melting point fell in the range of 100 to 102 °C.
In the case of `NCCn1ccc2ccc3c(=O)n(Cc4ccccc4)ccc3c21` (as salt: hydrochloride) [Example 7, 1-(2-Aminoethyl)-7-benzyl-1,7-dihydro-6H-pyrrolo[2,3-f]isoquinolin-6-one hydrochloride], the melting point was in the range of 153 to 154 °C.
As to `CN(C)CCn1ccc2ccc3c(=O)n(Cc4ccccc4)ccc3c21` [Example 6, 7-Benzyl-1-[2-(dimethylamino)ethyl]-1.7-dihydro-6H-pyrrolo[2,3-f]isoquinolin-6-one hydrochloride], in data set [1], the Ki is 388 nM. This lies in the sub-micromolar range.
In turn, `NCCn1ccc2ccc3c(=O)n(Cc4ccccc4)ccc3c21` [Example 7, 1-(2-Aminoethyl)-7-benzyl-1,7-dihydro-6H-pyrrolo[2,3-f]isoquinolin-6-one hydrochloride] displayed a Ki in data set [1] of 180 nM.
On to `NCCn1ccc2c3ccn(Cc4ccc(F)cc4)c(=O)c3ccc21` [Example 13, 3-(2-aminoethyl)-7-(4-fluorobenzyl)-3,7-dihydro-6H-pyrrolo[3,2-f]isoquinolin-6-one], for which the melting point was 203 to 205 °C. In data set [1], this compound registered a Ki of 426 nM.
`CN(C)CCn1ccc2c3ccn(Cc4ccc(F)cc4)c(=O)c3ccc21` [Example 14, 3-[2-(dimethylamino)ethyl]-7-(4-fluorobenzyl)-3,7-dihydro-6H-pyrrolo[3,2-f]isoquinolin-6-one] registered a melting point of 221 to 223 °C. In data set [1], this compound registered an inhibition constant (Ki) of 379 nM.
For `O=c1c2ccc3c(ccn3CCN3CCCC3)c2ccn1Cc1ccc(F)cc1` [Example 15, 7-(4-fluorobenzyl)-3-(2-pyrrolidin-1-ylethyl)-3,7-dihydro-6H-pyrrolo[3,2-f]isoquinolin-6-one] the same measures were 229 to 231 °C and 507 nM.
The compound `CN(C)CCCn1ccc2c3ccn(Cc4ccc(F)cc4)c(=O)c3ccc21` [Example 16, 3-[3-(dimethylamino)propyl]-7-(4-fluorobenzyl)-3,7-dihydro-6H-pyrrolo[3,2-f]isoquinolin-6-one] came in with a melting point of 49 to 51 °C.

One may read the melting point as the temperature, or range, at which the solid turns liquid. One may read the Ki as a measure of affinity in units of concentration, obtained from inhibition or displacement. Read a high Ki as a looser hold on the target.
